# Values of other authors as cited in patent US6525037B1, “Method of treating atherosclerosis and complications resulting therefrom” (BioNumerik Pharmaceuticals, Inc., priority 2000, dated 2003).
# Settings: accepted value
structure (smiles),measurement,value
[Cl-].[Na+] [common table salt],oral LD50,3750 mg/kg
